# In US20230348468A1, “1H-PYRAZOLO[4,3-d]PYRIMIDINE COMPOUNDS AS TOLL-LIKE RECEPTOR 7 (TLR7) AGONISTS” (BRISTOL-MYERS SQUIBB COMPANY, priority 2020, published 2023):
# Legend:
# human TLR7 = molecular target: T1, human TLR7 (Homo sapiens, UniProt Q9NYK1); experiment: Human TLR7 agonist activity (reporter) assay; type: cell-based; conditions: HEK-Blue TLR7 cells, SEAP reporter, 18 h treatment; average where assay performed multiple times; read-out: hTLR7 Agonism EC50
# T1 construct: host or cells: HEK-Blue TLR7 cells (engineered human embryonic kidney cells)
# T1 sequence (Q9NYK1 27-1049): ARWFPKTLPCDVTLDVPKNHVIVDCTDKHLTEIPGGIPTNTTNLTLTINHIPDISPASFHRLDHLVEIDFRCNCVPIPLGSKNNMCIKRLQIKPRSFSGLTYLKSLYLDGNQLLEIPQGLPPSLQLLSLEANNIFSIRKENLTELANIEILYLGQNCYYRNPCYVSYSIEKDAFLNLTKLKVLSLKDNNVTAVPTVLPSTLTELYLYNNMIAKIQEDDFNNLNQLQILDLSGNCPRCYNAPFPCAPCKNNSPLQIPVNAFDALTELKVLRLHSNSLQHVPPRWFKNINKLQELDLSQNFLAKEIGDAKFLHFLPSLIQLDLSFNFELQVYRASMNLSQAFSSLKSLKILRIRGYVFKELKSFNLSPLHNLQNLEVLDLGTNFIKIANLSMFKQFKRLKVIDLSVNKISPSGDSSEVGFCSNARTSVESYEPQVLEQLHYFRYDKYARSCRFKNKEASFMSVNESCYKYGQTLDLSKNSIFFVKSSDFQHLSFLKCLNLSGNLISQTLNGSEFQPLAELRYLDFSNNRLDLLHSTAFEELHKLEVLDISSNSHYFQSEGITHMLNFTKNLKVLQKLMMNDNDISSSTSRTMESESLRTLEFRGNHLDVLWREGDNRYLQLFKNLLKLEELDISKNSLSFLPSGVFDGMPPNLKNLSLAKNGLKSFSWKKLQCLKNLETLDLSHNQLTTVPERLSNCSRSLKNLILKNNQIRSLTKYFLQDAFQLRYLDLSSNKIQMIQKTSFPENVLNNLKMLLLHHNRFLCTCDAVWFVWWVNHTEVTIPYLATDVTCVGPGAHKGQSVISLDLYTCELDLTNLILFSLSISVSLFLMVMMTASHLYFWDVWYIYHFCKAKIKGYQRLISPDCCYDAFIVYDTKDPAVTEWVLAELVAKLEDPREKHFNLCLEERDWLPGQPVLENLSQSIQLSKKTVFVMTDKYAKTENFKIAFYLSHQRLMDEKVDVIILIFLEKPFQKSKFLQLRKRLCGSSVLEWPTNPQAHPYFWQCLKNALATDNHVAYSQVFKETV
# Description: This procedure describes a method for assaying human TLR7 (hTLR7) agonist activity of the compounds disclosed in this specification.
# HEK-Blue™ TLR7 cells were added to each well of a 384-well tissue-culture plate (15,000 cells per well) and incubated 16-18 h at 37° C., 5% CO2. Compounds (100 nl) were dispensed into wells containing the HEK-Blue™ TLR cells and the treated cells were incubated at 37° C., 5% CO2. After 18 h treatment ten microliters of freshly-prepared Quanti-Blue” reagent (Invivogen) was added to each well, incubated for 30 min (37° C., 5% CO2) and SEAP levels measured using an Envision plate reader (OD=620 nm). The half maximal effective concentration values (EC50; compound concentration which induced a response halfway between the assay baseline and maximum) were calculated.
# CD69 = experiment: Induction of CD69 in human whole blood; type: cell-based; conditions: heparinized human whole blood, 17 hrs at 37° C.; 100% set to 1 uM resiquimod; average where assay performed multiple times; read-out: hWB CD69 EC50
# Description: The induction of Type I interferon (IFN) MX-1 genes and the B-cell activation marker CD69 are downstream events that occur upon activation of the TLR7 pathway. The following is a human whole blood assay that measures their induction in response to a TLR7 agonist.
# Heparinized human whole blood was harvested from human subjects and treated with test TLR7 agonist compounds at 1 mM. The blood was diluted with RPMI 1640 media and Echo was used to predot 10 nL per well giving a final concentration of 1 uM (10 nL in 10 uL of blood). After mixing on a shaker for 30 sec, the plates were covered and placed in a 37° C. chamber for o/n=17 hrs. Fixing/lysis buffer was prepared (5×→1× in H2O, warm at 37° C.; Cat #BD 558049) and kept the perm buffer (on ice) for later use.
# For surface markers staining (CD69): prepared surface Abs: 0.045 ul hCD14-FITC (ThermoFisher Cat #MHCD1401)+0.6 ul hCD19-ef450 (ThermoFisher Cat #48-0198-42)+1.5 ul hCD69-PE (cat #BD555531)+0.855 ul FACS buffer. Added 3 ul/well, spin 1000 rpm for 1 min and mixed on shaker for 30 sec, put on ice for 30 mins. Stop stimulation after 30 min with 70 uL of prewarmed 1× fix/lysis buffer and use Feliex mate to resuspend (15 times, change tips for each plate) and incubate at 37 C for 10 min.
# Centrifuge at 2000 rpm for 5 min aspirate with HCS plate washer, mix on shaker for 30 sec and then wash with 70 uL in dPBS and pelleted 2×s (2000 rpm for 5 min) and 50 ul wash in FACS buffer pelleted 1×s (2000 rpm for 5 min). Mix on shaker for 30 sec. For Intracellular markers staining (MX-1): Add 50 ul of BD Perm buffer III and mix on shaker for 30 sec. Incubate on ice for 30 min (in the dark). Wash with 50 uL of FACS buffer 2× (spin @2300 rpm×5 min after perm) followed by mixing on shaker for 30 sec. Resuspended in 20 ul of FACS buffer containing MX1 antibody ( )(4812)-Alexa 647: Novus Biologicals #NBP2-43704AF647) 20 ul FACS bf+0.8 ul hIgG+0.04 ul MX-1. Spin 1000 rpm for 1 min, mix on shaker for 30 se and the samples were incubated at RT in the dark for 45 min followed by washing 2×FACS buffer (spin @2300 rpm×5 min after perm). Resuspend 20 ul (35 uL total per well) of FACS buffer and cover with foil and place in 4° C. to read the following day. Plates were read on iQuePlus. The results were loaded into toolset and […] curves are generated in curve master. The y-axis 100% is set to 1 uM of resiquimod.
SMILES,EC50 (human TLR7) [nM],EC50 (CD69) [nM]
"CCCCNc1nc(N)nc2cnn(Cc3ccc(C4(O)CC4)cc3OC)c12 [Compound 118, 1-(4-{[5-amino-7-(butylamino)-1H-pyrazolo[4,3-d]pyrimidin-1-yl]methyl}-3-methoxyphenyl)cyclopropan-1-ol]",257,276
"CCCCNc1nc(N)nc2cnn(Cc3ccc(C(O)(CC)CC)cc3OC)c12 [Compound 111, 3-(4-{[5-amino-7-(butylamino)-1H-pyrazolo[4,3-d]pyrimidin-1-yl]methyl}-3-methoxyphenyl)pentan-3-ol]",45.9,–
"CCC[C@@H](CCO)Nc1nc(N)nc2cnn(Cc3ccc(C(C)(C)N)cc3OC)c12 [Compound 102, (S)-3-((5-Amino-1-(4-(2-aminopropan-2-yl)-2-methoxybenzyl)-1H-pyrazolo[4,3-d]pyrimidin-7-yl)amino)hexan-1-ol]",7.2,1.8
"CCCCNc1nc(N)nc2cnn(Cc3ccc(C4(O)COC4)cc3OC)c12 [Compound 114, 3-(4-{[5-amino-7-(butylamino)-1H-pyrazolo[4,3-d]pyrimidin-1-yl]methyl}-3-methoxyphenyl)oxetan-3-ol]",410,–
"CCC[C@@H](CCO)Nc1nc(N)nc2cnn(Cc3cc(C(C)(C)N)ccc3OC)c12 [Compound 104, (S)-3-((5-Amino-1-(5-(2-aminopropan-2-yl)-2-methoxybenzyl)-1H-pyrazolo[4,3-d]pyrimidin-7-yl)amino)hexan-1-ol]",34.5,12.7
"CCC[C@@H](CCO)Nc1nc(N)nc2cnn(Cc3nc(C(C)(C)N)ccc3OC)c12 [Compound 119, (3S)-3-[(5-amino-1-{[6-(2-aminopropan-2-yl)-3-methoxypyridin-2-yl]methyl}-1H-pyrazolo[4,3-d]pyrimidin-7-yl)amino]hexan-1-ol]",4950,–
"COc1cc(C(C)(C)N)ccc1Cn1ncc2nc(N)nc(NCc3cc(C)on3)c21 [Compound 103, 1-(4-(2-Aminopropan-2-yl)-2-methoxybenzyl)-N7-((5-methylisoxazol-3-yl)methyl)-1H-pyrazolo[4,3-d]pyrimidine-5,7-diamine]",202,–
"CCC[C@@H](CCO)Nc1nc(N)nc2cnn(Cc3ccc(C(C)(C)O)cc3OC)c12 [Compound 109, (3S)-3-[(5-amino-1-{[4-(2-hydroxypropan-2-yl)-2-methoxyphenyl]methyl}-1H-pyrazolo[4,3-d]pyrimidin-7-yl)amino]hexan-1-ol]",4.6,3.5
"CCC[C@@H](CCO)Nc1nc(N)nc2cnn(Cc3cnc(C(C)(C)N)cc3OC)c12 [Compound 120, (3S)-3-[(5-amino-1-{[6-(2-aminopropan-2-yl)-4-methoxypyridin-3-yl]methyl}-1H-pyrazolo[4,3-d]pyrimidin-7-yl)amino]hexan-1-ol]",48.3,–
"CCCCNc1nc(N)nc2cnn(Cc3ccc(C(C)(O)CC)cc3OC)c12 (stereo not drawn) [Compound 112, 2-(4-{[5-amino-7-(butylamino)-1H-pyrazolo[4,3-d]pyrimidin-1-yl]methyl}-3-methoxyphenyl)butan-2-ol]",95.9,–
"CCCCNc1nc(N)nc2cnn(Cc3ccc(C(C)(O)C(F)(F)F)cc3OC)c12 (stereo not drawn) [Compound 115, 2-(4-{[5-amino-7-(butylamino)-1H-pyrazolo[4,3-d]pyrimidin-1-yl]methyl}-3-methoxyphenyl)-1,1,1-trifluoropropan-2-ol]",146,340
"CCCCNc1nc(N)nc2cnn(Cc3ccc(C(C)(O)CCC)cc3OC)c12 (stereo not drawn) [Compound 113, 2-(4-{[5-amino-7-(butylamino)-1H-pyrazolo[4,3-d]pyrimidin-1-yl]methyl}-3-methoxyphenyl)pentan-2-ol]",256,–
"CCCCNc1nc(N)nc2cnn(Cc3ccc(C(C)(C)N)cc3OC)c12 [Compound 101, 1-(4-(2-Aminopropan-2-yl)-2-methoxybenzyl)-N7-butyl-1H-pyrazolo[4,3-d]pyrimidine-5,7-diamine]",76.6,11.6
"CCCCNc1nc(N)nc2cnn(Cc3ccc(C4(O)CNC4)cc3OC)c12 [Compound 116, 3-(4-{[5-amino-7-(butylamino)-1H-pyrazolo[4,3-d]pyrimidin-1-yl]methyl}-3-methoxyphenyl)-azetidin-3-ol]",786,–
"CCCCNc1nc(N)nc2cnn(Cc3ccc(C(C)(C)O)cc3OC)c12 [Compound 110, 2-(4-{[5-amino-7-(butylamino)-1H-pyrazolo[4,3-d]pyrimidin-1-yl]methyl}-3-methoxyphenyl)propan-2-ol]",71.1,–
"CCCCNc1nc(N)nc2cnn(Cc3ccc(C4(N)COC4)cc3OC)c12 [Compound 107, 1-(4-(3-aminooxetan-3-yl)-2-methoxybenzyl)-N7-butyl-1H-pyrazolo-[4,3-d]pyrimidine-5,7-diamine]",247,42.6
"CCCCNc1nc(N)nc2cnn(Cc3cc(C(C)(C)N)ccc3OC)c12 [Compound 105, 1-(5-(2-Aminopropan-2-yl)-2-methoxybenzyl)-N7-butyl-1H-pyrazolo[4,3-d]pyrimidine-5,7-diamine]",–,50.6
"CCC[C@@H](CCO)Nc1nc(N)nc2cnn(Cc3ccc(C4(N)COC4)cc3OC)c12 [Compound 108, (S)-3-((5-amino-1-(4-(3-aminooxetan-3-yl)-2-methoxybenzyl)-1H-pyrazolo[4,3-d]pyrimidin-7-yl)amino)hexan-1-ol]",43.4,3.3
"CC[C@@H](CCO)Nc1nc(N)nc2cnn(Cc3ccc(C(C)(C)N)cc3OC)c12 [Compound 106, (S)-3-((5-amino-1-(4-(2-aminopropan-2-yl)-2-methoxybenzyl)-1H-pyrazolo[4,3-d]pyrimidin-7-yl)amino)pentan-1-ol]",211,3.7
"CCCCNc1nc(N)nc2cnn(Cc3ccc(C4(O)CCC4)cc3OC)c12 [Compound 117, 1-(4-{[5-amino-7-(butylamino)-1H-pyrazolo[4,3-d]pyrimidin-1-yl]methyl}-3-methoxyphenyl)cyclobutan-1-ol]",25.9,804
